Entries after “also recorded” stand apart in the source; their conditions may differ. Non-standard residues stand in square brackets, D forms with d. Residues, ends and D or L forms follow the SMILES beside them. *: point of attachment. Butyryl = CCCC(=O)*

Assay [1] relates to X. axonopodis pv. vesicatoria strain 206 on tomato plants (cv. Rio grande). The assay is described as follows: Bacterial spot of tomato, whole-plant infection assay. Type of assay: in vivo. The conditions noted are these: peptide sprayed at 125 μM 24 h before inoculation with 10^8 CFU/mL, severity 13 days after inoculation, two independent experiments, three replicates of three plants, Tukey's test P < 0.05. The procedure: The effect of the peptide conjugates flg15-BP387, flg15-BP475, and PIP1-BP475 and the monomers flg15 and PIP1 to reduce bacterial spot infection, caused by X. axonopodis pv. vesicatoria, was tested in potted tomato plant assays (Fig. 4).
FIG 4 Effect of the peptides on the bacterial spot of tomato plant severity. Two independent experiments were performed. Disease severity was evaluated in tomato plants 13 days after pathogen inoculation. A nontreated control (NTC) and a treatment with copper oxychloride were included as references. Values correspond to the mean disease severity of three replicates of three plants per each treatment, and error bars represent the confidence interval (α = 0.05). […] The photographs show the symptoms observed in nontreated (A) and flg15-BP475-treated (B) plants.
The efficacy of peptides in bacterial spot of tomato suppression was determined using whole-plant infection assays with tomato plants (cv. Rio grande) inoculated with X. axonopodis pv. vesicatoria strain 206. Tomato plants (4 weeks old) were sprayed with a hand sprayer (Herkules; Nuair, Robassomero, Italy) with 6 mL of an aqueous suspension of flg15-BP387, flg15-BP475, PIP1-BP475, flg15, and PIP1 at 125 μM. An NTC was included by spraying plants with water. A treatment with 70% copper oxychloride at 2 g/L (Cuprocol; Syngenta, Spain) was also included as a positive control. After 24 h, treated plants were spray-inoculated until the runoff point (6 mL) with a suspension of X. axonopodis pv. vesicatoria at 10^8 CFU/mL mixed with diatomaceous earth at 1 mg/mL. Plants were incubated under controlled greenhouse conditions (25 ± 2°C, 16 h light; 15 ± 2°C, 8 h dark; 60% relative humidity). The experimental design consisted of three replicates of three plants per treatment. Two independent experiments were performed. Severity of infections was determined per each replicate after 13 days of pathogen inoculation ([71]). A severity index, ranging from 0 to 4 (0, no symptoms; 1, necrosis/lesions up to 25% of the leaf surface; 2, necrosis/lesions on 25 to 50% of the leaf surface; 3, severe necrosis/lesions on 50 to 75% of the leaf surface; and 4, severe necrosis/lesions on >75% of the leaf surface), was determined for each of the leaves (with 4 to 5 leaflets) of a plant, and it was used to calculate the disease severity index per plant according to the formula
where S is the severity of the infections per plant, Si is the severity index for each leaf, and n is the number of leaves measured, which is multiplied by the maximum severity index (i.e., 4). Then, the mean of the severity index of the three plants of each replicate was calculated. The effect of peptide treatments on plant material infection was determined using analysis of variance (ANOVA). […]

The test system of assay [2] is Erwinia amylovora PMV6076. The assay is described as follows: In vitro growth inhibition (MIC). The class given is cell-based. As to conditions: TSB, 25°C, 48 h, OD 600 nm (Bioscreen C), three replicates, experiment repeated twice; MIC = lowest concentration with no growth, given as range. The method in brief: (§1)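 Strains were grown 24 h at 25°C on agar, then suspended in sterile water at 10^8 CFU mL^−1 and mixed with peptide dilutions in Trypticase soy broth. Plates were incubated at 25°C with shaking and OD600 read hourly for 48 h. MIC is the lowest concentration with no growth at 48 h.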

For assay [3], the system named is Pseudomonas syringae pv. actinidiae Psa3700.1.1. The assay can be described thus: In vitro growth inhibition (MIC). As to conditions: TSB, 25°C, 48 h, OD 600 nm (Bioscreen C), three replicates, experiment repeated twice; MIC given as range. Type of assay: cell-based. The method in brief:
as §1

The subject of assay [4] is Xanthomonas arboricola pv. pruni CFBP5563. The assay can be described thus: In vitro growth inhibition (MIC). Type of assay: cell-based. As to conditions: TSB, 25°C, 48 h, OD 600 nm (Bioscreen C), three replicates, experiment repeated twice; MIC given as range. In short, it runs like this:
as §1

Assay [5] deals with Xanthomonas fragariae Xf349-9A. The assay can be described thus: In vitro growth inhibition (MIC). As to conditions: TSB, 25°C, 48 h, OD 600 nm (Bioscreen C), three replicates, experiment repeated twice; MIC given as range. Type of assay: cell-based. In short, it runs like this: as §1
For assay [6], the system named is Pseudomonas syringae pv. syringae EPS94. The assay is described as follows: In vitro growth inhibition (MIC). Type of assay: cell-based. As to conditions: TSB, 25°C, 48 h, OD 600 nm (Bioscreen C), three replicates, experiment repeated twice; MIC given as range. In short, it runs like this: as §1
Assay [7] relates to Xanthomonas axonopodis pv. vesicatoria 2133-2. As to conditions: TSB, 25°C, 48 h, OD 600 nm (Bioscreen C), three replicates, experiment repeated twice; MIC given as range. The method in brief:
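Bacteria grown 24 h (48 h for Xanthomonas axonopodis, X. fragariae) at 25°C, suspended at 10^8 CFU mL^−1, mixed with peptide dilutions in TSB.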

Regarding `CCCC(=O)NCCCC[C@H](NC(=O)[C@H](CCCCN)NC(=O)[C@H](CC(C)C)NC(=O)[C@@H](NC(=O)[C@H](CCCCN)NC(=O)[C@H](CCCCN)NC(=O)[C@@H](Cc1ccccc1)NC(=O)[C@H](CC(C)C)NC(=O)[C@H](CCCCN)NC(=O)[C@H](CCCCN)NC(=O)[C@H](Cc1c[nH]cn1)NC(=O)[C@@H](NC(=O)[C@H](Cc1c[nH]cn1)NC(=O)[C@@H](NC(=O)CNC(=O)[C@H](Cc1ccc(O)cc1)NC(C)=O)[C@@H](C)CC)[C@@H](C)O)[C@@H](C)CC)C(=O)N[C@@H](CC(C)C)C(N)=O` [PIP1-BP475] (Ac-YGIHTHKKL[dF]KKILKK(Butyryl)L-NH2), in assay [1], the “Effect on severity of bacterial spot of tomato” value (“Effect on severity” below) is “showed the same efficacy in reducing the disease as their respective monomers flg15 and PIP1, except for PIP1-BP475 in one of the experiments”. Besides, the “MIC, Ea” value in assay [2] lay within 3.1 to 6.2 µM. Further, in assay [3], the “MIC, Psa” value lay in the range of 1.6 to 3.1 µM. Moreover, the “MIC, Xap” value in assay [4] is less than 0.8 µM. In addition, the “MIC, Xf” value in assay [5] lay in the range of 12.5 to 25 µM. The “MIC, Pss” value in assay [6] fell in the range of 3.1 to 6.2 µM. Further, in assay [7], the “MIC, Xav” value was less than 0.8 µM.
As for YGIHTH-NH2 [PIP1], in assay [1], the “Effect on severity” value is “only reduced the severity of the disease in one of the experiments”. Moreover, the “MIC, Ea” value in assay [2] is greater than 50 µM. Moreover, the “MIC, Psa” value in assay [3] is greater than 50 µM. For the same compound, the “MIC, Xap” value in assay [4] was greater than 50 µM. Besides, the “MIC, Xf” value in assay [5] was greater than 50 µM. Besides, the “MIC, Pss” value in assay [6] was greater than 50 µM. Moreover, the “MIC, Xav” value in assay [7] is greater than 50 µM.
On to `CCCC(=O)NCCCC[C@H](NC(=O)[C@H](CCCCN)NC(=O)[C@H](CC(C)C)NC(=O)[C@@H](NC(=O)[C@H](CCCCN)NC(=O)[C@H](CCCCN)NC(=O)[C@@H](Cc1ccccc1)NC(=O)[C@H](CC(C)C)NC(=O)[C@H](CCCCN)NC(=O)[C@H](CCCCN)NC(=O)[C@H](C)NC(=O)[C@@H](NC(=O)[C@H](CCC(N)=O)NC(=O)[C@H](CC(C)C)NC(=O)CNC(=O)[C@H](C)NC(=O)[C@H](C)NC(=O)[C@H](CC(=O)O)NC(=O)[C@H](CC(=O)O)NC(=O)[C@H](CCCCN)NC(=O)[C@H](C)NC(=O)[C@H](CO)NC(=O)[C@H](CC(N)=O)NC(=O)[C@@H](NC(=O)[C@H](CCCNC(=N)N)NC(C)=O)[C@@H](C)CC)[C@@H](C)CC)[C@@H](C)CC)C(=O)N[C@@H](CC(C)C)C(N)=O` [flg15-BP475] (Ac-RINSAKDDAAGLQIAKKL[dF]KKILKK(Butyryl)L-NH2), for which the “Effect on severity” value in assay [1] is on record as “decreased the severity of the disease compared to treatment with flg15, this reduction being significant in one of the experiments; also recorded: showed the same or more efficacy in reducing disease infection than treatment with copper oxychloride”. In addition, the “MIC, Ea” value in assay [2] lay within 3.1 to 6.2 µM. In addition, the “MIC, Psa” value in assay [3] lay within 3.1 to 6.2 µM. The “MIC, Xap” value in assay [4] is less than 0.8 µM. The “MIC, Xf” value in assay [5] was in the range of 6.2 to 12.5 µM. Besides, the “MIC, Pss” value in assay [6] was 12.5 to 25 µM. For the same compound, the “MIC, Xav” value in assay [7] is less than 0.8 µM.
As for RINSAKDDAAGLQIA-OH [flg15], the “Effect on severity” value in assay [1] is “significantly reduced the severity of bacterial spot of tomato compared to the nontreated control in both experiments”. In addition, the “MIC, Ea” value in assay [2] was greater than 100 µM. In addition, in assay [3], the “MIC, Psa” value was greater than 100 µM. Also, the “MIC, Xap” value in assay [4] was greater than 100 µM. Besides, the “MIC, Xf” value in assay [5] was greater than 100 µM. Moreover, in assay [6], the “MIC, Pss” value was greater than 100 µM. The “MIC, Xav” value in assay [7] was greater than 100 µM.

(Values after paper PMC9238401, “Peptide Conjugates Derived from flg15, Pep13, and PIP1 That Are Active against Plant-Pathogenic Bacteria and Trigger Plant Defense Responses” (Applied and Environmental Microbiology, 2022).)
